Source: ChEMBL document CHEMBL1145154 (J Med Chem, 2005)
pIC50: −log10 of the molar value. The source made the active and inactive calls. No cut-off for these calls is given here.

Assays:
A2780 = experiment: In vitro cytotoxicity for human ovarian tumor A2780 cells; type: functional, cell-based
Salmon testes DNA [1] = experiment: Binding affinity towards salmon testes DNA; type: nucleic-acid assay; conditions: Oncorhynchus gorbuscha
Salmon testes DNA [2] = experiment: Binding affinity towards salmon testes DNA; NA=not applicable; type: nucleic-acid assay; conditions: Oncorhynchus gorbuscha

Work on c1ccc2c(c1)C1=NCCN1c1ccccc1-2 yielded a pIC50 (A2780; Homo sapiens, A2780) of 5.81 and a K (Salmon testes DNA [1]) of 25600 M⁻¹.
With CARBOPLATIN [listing 1 of 2 here] the K (Salmon testes DNA [2]) was “inactive”.
CARBOPLATIN [listing 2 of 2 here] was tested, and the pIC50 (A2780; a2780) was 5.28.
CCCCCCCCCCCC[N+]1=C2c3ccccc3-c3ccccc3N2CC1 showed a pIC50 (A2780; Homo sapiens, A2780) of 7.06 and a K (Salmon testes DNA [1]) of 129000 M⁻¹.
COc1ccc(C[N+]2=C3c4ccccc4-c4ccccc4N3CC2)cc1 gave a pIC50 (A2780; Homo sapiens, A2780) of 5.82 and a K (Salmon testes DNA [1]) of 28900 M⁻¹.
COc1ccc2c(c[n+](C)c3c4cc5c(cc4ccc23)OCO5)c1OC [CHELERYTHRINE CHLORIDE] showed a pIC50 (A2780; Homo sapiens, A2780) of 5.33 and a K (Salmon testes DNA [1]) of 466000 M⁻¹.
OCC[N+]1=C2c3ccccc3-c3ccccc3N2CC1 showed a pIC50 (A2780; Homo sapiens, A2780) of 4.93 and a K (Salmon testes DNA [1]) of 20200 M⁻¹.
